Here are results for four compounds from patent US6344576B1, “Phospholipid-analogous compounds” (Max-Planck-Gesellschaft zur Förderung der Wissenschaften …, priority 1997, dated 2002).

Data set [1] in a line: Use as solubilizer for substances of low solubility in water.
Data set [2] is described as follows: Behaviour in water (solubility, gel formation, suitability for intravenous administration). The format is physicochemical.

Take “1,2-Dioleoyl-sn-glycero-3-phospho-N,N-dimethyl-N-dihydroxypropyl-ethylammonium [Example 14]”: the “suitability as solubilizer for substances of low solubility in water” value (“suitability as solubilizer” for short) in data set [1] is given as “proved useful”.

Consider `CCCCCCCC/C=C\CCCCCCCC(=O)OC[C@H](COP(=O)([O-])OCCC[N+](C)(C)C)OC(=O)CCCCCCC/C=C\CCCCCCCC` [Example 85, 1,2-Dioleoyl-sn-glycero-3-phospho-N,N,N-trimethyl-propylammonium], for which the “suitability as solubilizer” value in data set [1] is recorded as “proved useful”.

Regarding `CCCCCCCC/C=C\CCCCCCCCCCCC(=O)OC[C@@H](O)COP(=O)([O-])OCCC[N+](C)(C)C` [Example 139, 1-Erucoyl-sn-glycero-3-phospho-N,N,N-trimethyl-propylammonium], in data set [1], the “suitability as solubilizer” value is “proved useful”.

As for `CCCCCCCC/C=C\CCCCCCCCCCCCOP(=O)([O-])OCC[N+](C)(C)C` [Erucylphosphocholine], the “gel formation in water” value in data set [2] is listed as “forms gel-like structures in water”.
